Assay results: ChEMBL document CHEMBL1201862, “PubChem BioAssay data set” (2004)
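Tested at 5 concentrations; 48 h exposure; 96-well plates; endpoints linearly interpolated, else capped at highest concentration. GI50 is the concentration that inhibits growth by half.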 Active and inactive are the calls of the source. Rule as the data show it: active = GI50 up to about 1.1 µM and inactive = higher.

Experiments:
Assay in all cases: NCI-60 cell line screen, 48 h
HL-60 = tested on: HL-60
RXF 393 = tested on: RXF 393
HCT-15 = tested on: HCT-15
PC-3 = tested on: PC-3
MDA-N = tested on: MDA-N
SR = tested on: SR
MOLT-4 = tested on: MOLT-4
HOP-62 = tested on: HOP-62
OVCAR-4 = tested on: OVCAR-4
A498 = tested on: A498
MDA-MB-231 = tested on: MDA-MB-231
SNB-75 = tested on: SNB-75
HCT-116 = tested on: HCT-116
SF-295 = tested on: SF-295
NCI-H522 = tested on: NCI-H522
UO-31 = tested on: UO-31
NCI/ADR-RES = tested on: NCI/ADR-RES
Hs-578T = tested on: Hs-578T
RPMI-8226 = tested on: RPMI-8226

Row | Structure (SMILES) | GI50 (HL-60) | GI50 (RXF 393) | GI50 (HCT-15) [µM] | GI50 (PC-3) | GI50 (MDA-N) | GI50 (SR) | GI50 (MOLT-4) | GI50 (HOP-62) | GI50 (OVCAR-4) | GI50 (A498) | GI50 (MDA-MB-231) | GI50 (SNB-75) | GI50 (HCT-116) | GI50 (SF-295) | GI50 (NCI-H522) | GI50 (UO-31) | GI50 (NCI/ADR-RES) | GI50 (Hs-578T) | GI50 (RPMI-8226)
1 | Cc1ccc(C)c(COCCOCn2c(=O)[nH]c(=O)c3cc(Br)ccc32)c1 | > 100 µM (inactive) | > 100 µM (inactive) | > 100 | > 100 µM (inactive) | > 100 µM (inactive) | > 100 µM (inactive) | > 100 µM (inactive) | 41.7 µM (inactive) | 47.8 µM (inactive) | > 100 µM (inactive) | 66.4 µM (inactive) | 46.6 µM (inactive) | > 100 µM (inactive) | > 100 µM (inactive) | 62.4 µM (inactive) | > 100 µM (inactive) | > 100 µM (inactive) | – | –
2 | CCC(c1ccc(N(C)C)cc1)C1NC(=S)NC1=O (stereo not drawn) | 17.5 µM (inactive) | > 100 µM (inactive) | 40.2 | – | 59.7 µM (inactive) | 8.11 µM (inactive) | 30.7 µM (inactive) | – | 62.7 µM (inactive) | 50.6 µM (inactive) | > 100 µM (inactive) | 85.9 µM (inactive) | 47 µM (inactive) | 67.9 µM (inactive) | > 100 µM (inactive) | 96.8 µM (inactive) | > 100 µM (inactive) | > 100 µM (inactive) | 46 µM (inactive)
3 | Cc1[nH]c2ncn(N)c(=N)c2c1Cc1ccccc1 | 17.8 µM (inactive) | – | > 100 | 30.6 µM (inactive) | 35.3 µM (inactive) | > 100 µM (inactive) | > 100 µM (inactive) | 47.2 µM (inactive) | > 100 µM (inactive) | > 100 µM (inactive) | > 100 µM (inactive) | 42.7 µM (inactive) | > 100 µM (inactive) | > 100 µM (inactive) | 49.2 µM (inactive) | 26.1 µM (inactive) | 82 µM (inactive) | – | > 100 µM (inactive)
4 | COc1cc(OC)cc(Oc2nc3c(N)cc(C(F)(F)F)cc3nc2-c2ccccc2)c1 | 16.6 µM (inactive) | 21.1 µM (inactive) | 18.1 | 26.2 µM (inactive) | – | 11.1 µM (inactive) | 9.27 µM (inactive) | > 100 µM (inactive) | 78.9 µM (inactive) | > 100 µM (inactive) | 28.9 µM (inactive) | 47.9 µM (inactive) | 22.6 µM (inactive) | 49.5 µM (inactive) | – | > 100 µM (inactive) | 52.6 µM (inactive) | 80.4 µM (inactive) | 16.4 µM (inactive)
5 | COc1cc([C@@H]2c3cc4c(cc3C[C@@H]3COC(=O)C32)OCO4)cc(OC)c1O (stereo partly drawn) | 0.0274 µM (active) | 0.0165 µM (active) | 0.0294 | 0.0234 µM (active) | 0.0113 µM (active) | 0.011 µM (active) | 0.0271 µM (active) | 0.03 µM (active) | – | 0.211 µM (active) | – | – | 0.0297 µM (active) | 0.0208 µM (active) | 0.0119 µM (active) | 0.0562 µM (active) | 0.0187 µM (active) | – | 0.0269 µM (active)
6 | COc1ccc(/N=C2\S/C(=N\C(=N\c3ccccc3)SCc3ccccc3)N(c3ccccc3)\C2=N/c2ccc(OC)cc2)cc1 | > 100 µM (inactive) | > 100 µM (inactive) | > 100 | > 100 µM (inactive) | > 100 µM (inactive) | > 100 µM (inactive) | > 100 µM (inactive) | > 100 µM (inactive) | – | – | > 100 µM (inactive) | > 100 µM (inactive) | > 100 µM (inactive) | – | – | > 100 µM (inactive) | – | > 100 µM (inactive) | > 100 µM (inactive)
7 | CCOC(=O)C(O)(CC1=NC(C(=O)OC)(C(=O)OC)C(c2cccc(C=O)c2)O1)C(=O)OCC (stereo not drawn) | 25.3 µM (inactive) | > 100 µM (inactive) | > 100 | > 100 µM (inactive) | > 100 µM (inactive) | > 100 µM (inactive) | > 100 µM (inactive) | > 100 µM (inactive) | > 100 µM (inactive) | > 100 µM (inactive) | – | > 100 µM (inactive) | > 100 µM (inactive) | – | – | > 100 µM (inactive) | > 100 µM (inactive) | – | > 100 µM (inactive)
8 | Cc1cn(CCCC2=NCCCN2)c(=O)[nH]c1=O | – | > 100 µM (inactive) | > 100 | > 100 µM (inactive) | > 100 µM (inactive) | – | > 100 µM (inactive) | > 100 µM (inactive) | > 100 µM (inactive) | > 100 µM (inactive) | > 100 µM (inactive) | > 100 µM (inactive) | > 100 µM (inactive) | > 100 µM (inactive) | > 100 µM (inactive) | > 100 µM (inactive) | > 100 µM (inactive) | > 100 µM (inactive) | 79.1 µM (inactive)
9 | NC(=S)Nc1ccc(S(=O)(=O)Nc2ccc(S(N)(=O)=O)cc2)cc1 | > 100 µM (inactive) | > 100 µM (inactive) | > 100 | > 100 µM (inactive) | > 100 µM (inactive) | – | > 100 µM (inactive) | > 100 µM (inactive) | > 100 µM (inactive) | > 100 µM (inactive) | > 100 µM (inactive) | – | > 100 µM (inactive) | > 100 µM (inactive) | > 100 µM (inactive) | > 100 µM (inactive) | > 100 µM (inactive) | – | > 100 µM (inactive)
10 | COc1ccc2c(c1)[n+]([O-])c(C(=O)CC(=O)C(=O)Nc1cccc(Cl)c1C)c(C)[n+]2[O-] | 44.5 µM (inactive) | > 100 µM (inactive) | > 100 | – | – | 34 µM (inactive) | 49.4 µM (inactive) | > 100 µM (inactive) | > 100 µM (inactive) | > 100 µM (inactive) | – | > 100 µM (inactive) | > 100 µM (inactive) | > 100 µM (inactive) | 26.2 µM (inactive) | > 100 µM (inactive) | – | – | 83.6 µM (inactive)
11 | O=c1c2ccc(Br)cc2nc(-c2ccccc2)n1NC1OC(CO)C(O)C(O)C1O (stereo not drawn) | > 100 µM (inactive) | – | > 100 | – | – | – | 57.3 µM (inactive) | 59.3 µM (inactive) | > 100 µM (inactive) | > 100 µM (inactive) | – | > 100 µM (inactive) | > 100 µM (inactive) | > 100 µM (inactive) | > 100 µM (inactive) | > 100 µM (inactive) | – | – | > 100 µM (inactive)
12 | COc1c(-c2nc3ccc(N4CCN(C)CC4)nc3[nH]2)cc(OC)c2c1nc(CO)n2C | 81.7 µM (inactive) | > 100 µM (inactive) | > 100 | > 100 µM (inactive) | > 100 µM (inactive) | – | > 100 µM (inactive) | > 100 µM (inactive) | > 100 µM (inactive) | – | > 100 µM (inactive) | 31.1 µM (inactive) | > 100 µM (inactive) | > 100 µM (inactive) | > 100 µM (inactive) | > 100 µM (inactive) | > 100 µM (inactive) | > 100 µM (inactive) | > 100 µM (inactive)
13 | CC1OC(=O)c2ccccc2NC1=O (stereo not drawn) | > 100 µM (inactive) | > 100 µM (inactive) | > 100 | > 100 µM (inactive) | – | > 100 µM (inactive) | > 100 µM (inactive) | > 100 µM (inactive) | > 100 µM (inactive) | > 100 µM (inactive) | > 100 µM (inactive) | > 100 µM (inactive) | > 100 µM (inactive) | > 100 µM (inactive) | > 100 µM (inactive) | > 100 µM (inactive) | > 100 µM (inactive) | > 100 µM (inactive) | > 100 µM (inactive)
14 | Cc1ccc(C)n1-c1ccccc1C1C=Cn2c(=O)oc3c(OC(C)C)c(OC(C)C)c(O)c1c32 (stereo not drawn) | 8.75 µM (inactive) | 7.78 µM (inactive) | 15.7 | 5.11 µM (inactive) | – | – | 6.84 µM (inactive) | 73.5 µM (inactive) | 32.6 µM (inactive) | 43.8 µM (inactive) | 5.13 µM (inactive) | 28.1 µM (inactive) | 8.26 µM (inactive) | 33.3 µM (inactive) | 7.06 µM (inactive) | 12.7 µM (inactive) | 27.4 µM (inactive) | 56 µM (inactive) | 4.9 µM (inactive)
15 | CSc1nc2c(c(=O)n1C)N=C(c1ccccc1)[C@H](C(CC(=O)c1ccccc1)c1ccccc1)C(c1ccccc1)N2 (stereo partly drawn) | 5.22 µM (inactive) | 65.6 µM (inactive) | > 100 | 9.84 µM (inactive) | > 100 µM (inactive) | > 100 µM (inactive) | 5.94 µM (inactive) | > 100 µM (inactive) | 23.6 µM (inactive) | > 100 µM (inactive) | > 100 µM (inactive) | 3.12 µM (inactive) | 32 µM (inactive) | > 100 µM (inactive) | 20.5 µM (inactive) | 15 µM (inactive) | 76.6 µM (inactive) | – | 19 µM (inactive)
16 | CN(C(=O)C1CCCCCC1=O)c1ccccc1Cl (stereo not drawn) | – | > 100 µM (inactive) | > 100 | – | – | – | > 100 µM (inactive) | > 100 µM (inactive) | > 100 µM (inactive) | > 100 µM (inactive) | > 100 µM (inactive) | > 100 µM (inactive) | > 100 µM (inactive) | > 100 µM (inactive) | > 100 µM (inactive) | > 100 µM (inactive) | > 100 µM (inactive) | – | > 100 µM (inactive)
17 | Oc1[nH]c(Nc2cccc(Cl)c2)nc2ncnc1-2 | 79.8 µM (inactive) | > 100 µM (inactive) | > 100 | 25.4 µM (inactive) | – | > 100 µM (inactive) | 38.6 µM (inactive) | 28.1 µM (inactive) | > 100 µM (inactive) | > 100 µM (inactive) | 30.8 µM (inactive) | 30.5 µM (inactive) | 62.4 µM (inactive) | > 100 µM (inactive) | > 100 µM (inactive) | > 100 µM (inactive) | > 100 µM (inactive) | 68.5 µM (inactive) | > 100 µM (inactive)
